Counter-ions that a name gives are not always drawn.
Experiments:
[1] = test system: E. cloacae; test: In vitro activity, MIC of strain group (Table 2); assay type: cell-based; conditions: Enterobacter cloacae; Gn-II E. cloacae, 7 strains; read-out: Geometric mean of MIC
[2] = test system: P. aeruginosa A9843; test: In vivo efficacy, experimental infection in mice; conditions: Pseudomonas aeruginosa, A9843, in Mus musculus, im, 120 h, read-out: PD50 (median protective dose)
Description: (§2) The mice were treated with test compound by im route immediately after the bacterial challenge.

[3] = test system: K. pneumoniae A9977; test: In vivo efficacy, experimental infection in mice; conditions: Klebsiella pneumoniae, A9977, in Mus musculus, im, 120 h, read-out: PD50 (median protective dose)
Description: as §2

[4] = test system: S. aureus BX-1633 A9606; test: In vivo efficacy, experimental infection in mice; conditions: Staphylococcus aureus, BX1633A9606, in Mus musculus, im, 120 h, read-out: PD50 (median protective dose)
Description: as §2

[5] = test system: P. morganii A15153; test: In vivo efficacy, experimental infection in mice; conditions: Morganella morganii, A15153, in Mus musculus, im, 120 h, read-out: PD50 (median protective dose)
Description: as §2

[6] = test system: Ps. aeruginosa A15150; test: MIC, serial two-fold agar dilution (Table 1); assay type: cell-based; conditions: Pseudomonas aeruginosa, Mueller-Hinton agar
Description: (§1) Minimum inhibitory concentrations (MIC) of BB-S 651, BB-S 669 and BB-S 676 were determined by serial two-fold agar dilution method using Steers' apparatus on Mueller-Hinton agar plate against 15 test organisms for primary screening as shown in Table 1.

[7] = test system: S. aureus 209P A9497; test: MIC, serial two-fold agar dilution (Table 1); assay type: cell-based; conditions: Staphylococcus aureus; S. aureus 209P A9497; Mueller-Hinton agar; read-out: MIC
Description: as §1

[8] = test system: E. cloacae A9656; test: MIC, serial two-fold agar dilution (Table 1); assay type: cell-based; conditions: Enterobacter cloacae, Mueller-Hinton agar
Description: as §1

[9] = test system: S. aureus #193; test: MIC, serial two-fold agar dilution (Table 1); assay type: cell-based; conditions: Staphylococcus aureus; S. aureus #193, penicillinase-producing; Mueller-Hinton agar; read-out: MIC
Description: as §1

[10] = test system: E. coli A15164; test: MIC, serial two-fold agar dilution (Table 1); assay type: cell-based; conditions: Escherichia coli; E. coli A15164, cephalothin-resistant; Mueller-Hinton agar
Description: as §1

[11] = test system: Ps. aeruginosa A9843; test: MIC, serial two-fold agar dilution (Table 1); assay type: cell-based; conditions: Pseudomonas aeruginosa, Mueller-Hinton agar
Description: as §1

[12] = test system: Ps. aeruginosa A20717; test: MIC, serial two-fold agar dilution (Table 1); assay type: cell-based; conditions: Pseudomonas aeruginosa, Mueller-Hinton agar
Description: as §1

[13] = test system: E. coli Juhl A15119; test: MIC, serial two-fold agar dilution (Table 1); assay type: cell-based; conditions: Escherichia coli, JUHLA15119; E. coli Juhl A15119, cephalothin-sensitive; Mueller-Hinton agar
Description: as §1

[14] = test system: E. coli A9660; test: MIC, serial two-fold agar dilution (Table 1); assay type: cell-based; conditions: Escherichia coli; E. coli A9660, cephalothin-sensitive; Mueller-Hinton agar
Description: as §1

[15] = test system: S. aureus BX-1633-2 A9606; test: MIC, serial two-fold agar dilution (Table 1); assay type: cell-based; conditions: Staphylococcus aureus, BX16332A9606; S. aureus BX-1633-2 A9606, penicillinase-producing; Mueller-Hinton agar; read-out: MIC
Description: as §1

[16] = test system: Ps. aeruginosa A20718; test: MIC, serial two-fold agar dilution (Table 1); assay type: cell-based; conditions: Pseudomonas aeruginosa, Mueller-Hinton agar
Description: as §1

[17] = test system: S. aureus Smith A9537; test: MIC, serial two-fold agar dilution (Table 1); assay type: cell-based; conditions: Staphylococcus aureus, SMITHA9537, Mueller-Hinton agar
Description: as §1

[18] = test system: E. coli A15148; test: MIC, serial two-fold agar dilution (Table 1); assay type: cell-based; conditions: Escherichia coli; E. coli A15148, cephalothin-resistant; Mueller-Hinton agar
Description: as §1

[19] = test system: Ps. aeruginosa A20229; test: MIC, serial two-fold agar dilution (Table 1); assay type: cell-based; conditions: Pseudomonas aeruginosa, Mueller-Hinton agar
Description: as §1

[20] = test system: S. marcescens A20019; test: MIC, serial two-fold agar dilution (Table 1); assay type: cell-based; conditions: Serratia marcescens, Mueller-Hinton agar
Description: as §1

CN(C)Cc1ccc[n+](CC2=C(C(=O)[O-])N3C(=O)C(NC(=O)[C@H](NC(=O)c4cnc5cccnc5c4O)c4ccc(O)cc4)C3SC2)c1 (stereo partly drawn) [BB-S 651, 7-[D-α-(4-Hydroxy-1,5-naphthyridine-3-carboxamido)-α-(4-hydroxyphenyl)acetamido]-3-(3-N,N-dimethylaminomethylpyridinium)methyl-3-cephem-4-carboxylate Hydrochloride]
MIC [1]: > 100 µg/mL | ED50 [2]: 1.9 mg/kg | ED50 [3]: 7.4 mg/kg | ED50 [4]: 6.3 mg/kg | ED50 [5]: > 100 mg/kg | MIC [6]: 0.8 µg/mL | MIC [7]: 0.8 µg/mL | MIC [8]: 12.5 µg/mL | MIC [9]: 6.3 µg/mL | MIC [10]: 25 µg/mL | MIC [11]: 1.6 µg/mL | MIC [12]: 1.6 µg/mL | MIC [13]: 6.3 µg/mL | MIC [14]: 1.6 µg/mL | MIC [15]: 6.3 µg/mL | MIC [16]: 0.8 µg/mL | MIC [17]: 3.1 µg/mL | MIC [18]: 3.1 µg/mL | MIC [19]: 0.8 µg/mL | MIC [20]: 50 µg/mL

CCN1CCN(C(=O)N[C@@H](C(=O)N[C@@H]2C(=O)N3C(C(=O)O)=C(CSc4nnnn4C)CS[C@H]23)c2ccc(O)cc2)C(=O)C1=O [Cefoperazone, reference compound]
ED50 [2]: 20 mg/kg | ED50 [3]: 0.6 mg/kg | ED50 [4]: 1.6 mg/kg | ED50 [5]: 6.3 mg/kg

From patent US4288590A, “7 -[Dα-(4-Hydroxy-1,5-naphthyridine-3-carboxamido)-α-arylacetam ido]-3-(N,N-dimethyl-aminomethylpyridinium) methyl-3-cephem-4-carboxylates” (Bristol-Myers Company, priority 1980, dated 1981)
